Measurements published in article PMC8533149 (Biomolecules, 2021).
Where two headings read alike, the source gives them in different places.

Experiments:
[1] = system: MT4 cells; assay: Cytotoxicity test; type: cell-based; conditions: for СС50 (MT4): Table S12, nine days; for CC50: Figure 7
Procedure: Green monkey kidney (Vero, Beach, FL, USA) cell line was maintained in 2 × Eagle MEM (“Chumakov FSC R&D IBP RAS”, Russia) with 5% FBS with L-glutamine, penicillin and streptomycin. […] HIV-1 strain NL4-3 was obtained via cell transfection with pNL4-3 3 (ARP2006, NIBSC, Potters Bar, UK).
MT4 cell suspensions were added to the wells with compound dilutions and DMSO control (approx. 2 × 10^4 cells per well). […] All experimental procedures were performed in two replicates and were repeated two to four times. Mean and SD were calculated with OriginPro 8 (OriginLab, St. Louis, MO, USA).

[2] = system: HIV-1 strain NL4-3 in MT4 cells; assay: Cytopathic effect inhibition test; type: cell-based; conditions: HIV-1 NL4-3, MT4 cells
Procedure: Human T cell leukemia (MT4) cell line was maintained in RPMI-1640 (“Chumakov FSC R&D IBP RAS”, Moscow, Russia) with 10% of fetal bovine serum (FBS, Invitrogen, Waltham, MA, USA), L-glutamine and gentamicin. Green monkey kidney (Vero, Beach, FL, USA) cell line was maintained in 2 × Eagle MEM (“Chumakov FSC R&D IBP RAS”, Russia) with 5% FBS with L-glutamine, penicillin and streptomycin. Cell cultures were incubated in the present of 5% CO2 at 37 °C. HIV-1 strain NL4-3 was obtained via cell transfection with pNL4-3 3 (ARP2006, NIBSC, Potters Bar, UK).
Eight two-fold dilutions of stock solutions of the compounds in two replicates were prepared in RPMI-1640 (“Chumakov FSC R&D IBP RAS”, Russia). Compound dilutions were mixed with equal volumes of the virus suspension containing 100 CCID50 (50% tissue culture infectious dose). Control cells were treated with the same sequential concentrations of DMSO as in compound dilutions. Then, the MT4 cell suspension (approx. 2 × 10^4 cells per well) in RPMI-1640 containing 10% FBS (Invitrogen, South America) was added to experimental mixtures. A final concentration series started from 25 μM. Each experiment contained virus dose titration in the inoculate to assure the acceptable dose-range. After a nine-day incubation (5% CO2, at 37 °C), cytopathic effect (CPE) was visually accessed via microscope. EC50 values were calculated according to the Karber method. All experimental procedures were performed in two replicates and were repeated two to four times. Mean and SD were calculated with OriginPro 8 (OriginLab, St. Louis, MO, USA).

[3] = system: HIV-1 LTR-III G-quadruplex (FAM/TAMRA-labeled LTR-III); assay: FRET melting assay, LTR-III G4; type: binding; conditions: for LTR III stabilization: Figure 7, stabilization group; for LTR-III ΔTm: Table S1 primary screening, ligand:ODN 50:1, singlicate; for LTR-III (average): Table S12, average stabilization
Procedure, shortened: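 Melting is followed by FAM fluorescence (ex 495/em 520 nm) while heating at 1 °C/min from 30 to 95 °C. Labelled ODN at 0.5 μM, pre-annealed in 10 mM Li cacodylate, 100 mM KCl, pH 7.4, mixed with ligand at 50:1 (25 μM), or 20:1 and 2:1 for titration. ΔTm is relative to the 0.25% DMSO buffer control.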

[4] = Table S12, CPE, nine-day incubation, read-out: EC50
[5] = Figure 7, read-out: Antiviral activity EC50 (HIV)

Cc1cn([C@H]2C[C@H](N=[N+]=[N-])[C@@H](CO)O2)c(=O)[nH]c1=O [AZT, reference compound]
СС50 (MT4) [1]: 8.0 ± 1.5 µM | EC50 [2, 4]: 0.0071 ± 0.00043 µM

COc1ccc(C=C2N=C(CC(C)C)C(=O)N(OC)C2=O)cc1 [M 802]
LTR III stabilization [3]: < 1 °C | LTR-III ΔTm [3]: -2.3 °C | LTR-III (average) [3]: -2,3 °C | CC50 [1]: 7 ± 3 µM | СС50 (MT4) [1]: 6.6 ± 3.1 µM

COc1ccc(OC)c(C=C2N=C(C)N(C)C2=O)c1 [N 840]
LTR III stabilization [3]: < 1 °C | LTR-III ΔTm [3]: -2.5 °C | LTR-III (average) [3]: -1,55 °C | CC50 [1]: > 25 µM | СС50 (MT4) [1]: > 25 µM

COc1cc(C=CC2=NC(=Cc3ccc(O)cc3)C(=O)N2C)cc(OC)c1O [N 906]
LTR III stabilization [3]: < 1 °C | LTR-III ΔTm [3]: 0.1 °C | LTR-III (average) [3]: 0,1 °C | CC50 [1]: 7 ± 3 µM | СС50 (MT4) [1]: 6.6 ± 3.1 µM

COc1cc(O)ccc1C=C1N=C(C=Cc2c(F)c(F)c(F)c(F)c2F)N(C)C1=O [N 1049]
LTR-III ΔTm [3]: 1.8 °C | LTR-III (average) [3]: 1,8 °C | CC50 [1]: 5 ± 3 µM | СС50 (MT4) [1]: 5.2 ± 2.5 µM | EC50 [2, 5]: 2 ± 1 µM | EC50 [2, 4]: 2.1 ± 1.4 µM

COc1c(O)ccc(C=C2N=C(C=Cc3ccncc3)N(C)C2=O)c1O [N 1069]
LTR-III ΔTm [3]: 2.7 °C | LTR-III (average) [3]: 2,7 °C | CC50 [1]: 6 ± 2 µM | СС50 (MT4) [1]: 6.0 ± 2.0 µM | EC50 [2, 5]: 4 ± 2 µM | EC50 [2, 4]: 4.23 ± 1.75 µM

COc1cc(O)ccc1/C=C1N=C(/C=C/N(C)C)N(C)C\1=O [N 1122]
LTR-III ΔTm [3]: 2.3 °C | LTR-III (average) [3]: 2,3 °C | CC50 [1]: > 25 µM | СС50 (MT4) [1]: > 25 µM

COc1ccc(C=C2N=C(C)N(CC(N)=O)C2=O)cc1 [SA 120]
LTR III stabilization [3]: < 1 °C | LTR-III ΔTm [3]: -2.1 °C | LTR-III (average) [3]: -1,35 °C | CC50 [1]: > 25 µM | СС50 (MT4) [1]: > 25 µM

CC1=NC(=Cc2ccc3cc(N(C)C)ccc3c2)C(=O)N1C [X 001]
LTR-III ΔTm [3]: -0.5 °C

CC1=NC(=Cc2ccc3cc(N4CCOCC4)ccc3c2)C(=O)N1C [X 002]
LTR-III ΔTm [3]: -0.6 °C

CC1=NC(=Cc2cc3c4c(c2)CCCN4CCC3)C(=O)N1C [X 4]
LTR-III ΔTm [3]: 1 °C

CC1=NC(=Cc2ccc(N)c(O)c2)C(=O)N1C [X 5]
LTR-III ΔTm [3]: 0.9 °C

CCOC(=O)CN1C(=O)C(=Cc2ccc(Br)cc2)N=C1c1ccccc1 [X 6]
LTR-III ΔTm [3]: -0.1 °C

CC1=NC(=Cc2ccc(OCc3ccccc3)cc2)C(=O)N1C [X 7]
LTR-III ΔTm [3]: 0 °C

C=CCOc1ccc(C=C2N=C(C)N(C)C2=O)cc1 [X 8]
LTR-III ΔTm [3]: 0 °C

CC1=NC(=Cc2ccc(Br)cc2)C(=O)N1Cc1ccccc1 [X 9]
LTR-III ΔTm [3]: -0.6 °C

CC1=NC(=Cc2ccc(O)cc2)C(=O)N1CCCNC(=O)OC(C)(C)C [X 10]
LTR-III ΔTm [3]: -0.2 °C

C=CCc1cc(C=C2N=C(C)N(C)C2=O)ccc1O [X 11]
LTR-III ΔTm [3]: -0.2 °C

C#CCN1C(=O)C(=Cc2ccc(O)cc2)N=C1C [X 12]
LTR-III ΔTm [3]: 0.2 °C

CC(=O)Oc1ccc(C=C2N=C(C)NC2=O)cc1 [X 13]
LTR-III ΔTm [3]: -0.8 °C

CC(=O)C1=NC(=Cc2ccc(O)cc2)C(=O)N1C [X 18]
LTR-III ΔTm [3]: 0.6 °C

CN1C(=O)C(=Cc2ccc(OCc3ccccc3)cc2)N=C1C(C)(C)C [X 20]
LTR-III ΔTm [3]: -0.2 °C

CN1C(=O)C(=Cc2ccc(O)cc2)N=C1CCCCCNC(=O)OC(C)(C)C [X 21]
LTR-III ΔTm [3]: -0.1 °C

COc1ccc(CN(C(C)=O)C(C)C2=NC(=Cc3ccc(O)cc3)C(=O)N2C)cc1 (centres unmarked) [X 23]
LTR-III ΔTm [3]: 0.5 °C

O=C1NC(c2ccccc2)=NC1=Cc1ccc(O)cc1 [X 24]
LTR-III ΔTm [3]: -0.5 °C

O=C(O)c1ccc(-c2ccccc2)cc1 [X 26]
LTR-III ΔTm [3]: -0.1 °C

CNC(=O)C(N)C(O)c1ccc(OCc2ccccc2)cc1 (centres unmarked) [X 27]
LTR-III ΔTm [3]: -0.1 °C

CC(=O)NC(=Cc1ccc([N+](=O)[O-])cc1)C(=O)NC1CCCCC1 [X 28]
LTR-III ΔTm [3]: -0.3 °C

CNC(=O)C(=Cc1ccc(O)c(CO)c1)NC(=O)c1ccccc1 [X 29]
LTR-III ΔTm [3]: -0.6 °C

CC1=NC(=Cc2ccccc2)C(=O)N1Cc1ccccc1 [ZS142]
LTR-III ΔTm [3]: -1.4 °C

COc1ccc(N)cc1C=C1N=C(C)N(C)C1=O [ZS 62]
LTR-III ΔTm [3]: 0 °C

CC1=NC(=Cc2ccncc2)C(=O)N1CC(=O)O [ZS 69]
LTR-III ΔTm [3]: -0.4 °C

COc1ccc(C(N)=C2N=C(C)N(C)C2=O)cc1 [ZS 99]
LTR-III ΔTm [3]: -0.2 °C

CC1=NC(=C(N)c2ccccc2)C(=O)N1C [ZS 109]
LTR-III ΔTm [3]: -0.7 °C

COc1ccc(C=C2N=C(C)N(Cc3ccccc3)C2=O)cc1 [ZS 128]
LTR-III ΔTm [3]: -0.3 °C

COc1ccc(C=C2N=C(C)N(C3CCCCC3)C2=O)cc1 [ZS 129]
LTR-III ΔTm [3]: -0.2 °C

CC1=NC(=Cc2ccc([N+](=O)[O-])cc2)C(=O)N1Cc1ccccc1 [ZS 143]
LTR-III ΔTm [3]: -0.9 °C

CC1=NC(=Cc2ccc([N+](=O)[O-])cc2)C(=O)N1C1CCCCC1 [ZS 146]
LTR-III ΔTm [3]: 0.2 °C

NC(=C1N=C2C=CC=CN2C1=O)c1ccccc1 [ZS 167]
LTR-III ΔTm [3]: -0.1 °C

CC1=NC(=Cc2ccc(O)cc2Br)C(=O)N1C [ZS 174]
LTR-III ΔTm [3]: -0.3 °C

CC1=NC(=C(N)c2ccc(Cl)cc2)C(=O)N1C [ZS 178]
LTR-III ΔTm [3]: -0.3 °C

CN(C)C=CC1=NC(=C(N)c2ccccc2)C(=O)N1C [ZS 182]
LTR-III ΔTm [3]: 0 °C

CC1=NC(=C(N)c2ccc(Br)cc2)C(=O)N1C [ZS 190]
LTR-III ΔTm [3]: -0.5 °C

COC(=O)c1ccc(C(N)=C2N=C(C)N(C)C2=O)cc1 [ZS 199]
LTR-III ΔTm [3]: -0.4 °C

NC(=C1N=C2C=CC=CN2C1=O)c1ccc(Cl)cc1 [ZS 228]
LTR-III ΔTm [3]: 0.3 °C

CN1C(=O)C(=Cc2ccc(O)cc2)N=C1C=Cc1ccccc1 [ccA 1]
LTR-III ΔTm [3]: 0.6 °C

CN1C(=O)/C(=C/c2ccc(O)cc2)N=C1/C=C/c1ccc(O)cc1 [ccA 2]
LTR-III ΔTm [3]: 0.4 °C

CN1C(=O)C(=Cc2ccc(O)cc2)N=C1C=CC=Cc1ccccc1 [ccA 4]
LTR-III ΔTm [3]: 0.8 °C

CN1C(=O)C(=Cc2ccc(O)cc2)N=C1C=Cc1ccc(Br)cc1 [ccA 7]
LTR-III ΔTm [3]: 0.8 °C

CC=CC=CC1=NC(=Cc2ccc(O)cc2)C(=O)N1C [ccA 8]
LTR-III ΔTm [3]: 0.2 °C

CN1C(=O)C(=Cc2ccc(O)cc2)N=C1C=Cc1ccncc1 [ccA 9]
LTR-III ΔTm [3]: 0.3 °C

CN1C(=O)C(=Cc2ccc(O)cc2)N=C1C=Cc1ccc(O)c(Br)c1 [ccA 10]
LTR-III ΔTm [3]: 0.7 °C

CN1C(=O)C(=Cc2ccc(O)cc2)N=C1C=Cc1ccc(O)c([N+](=O)[O-])c1 [ccA 11]
LTR-III ΔTm [3]: 0.1 °C

CN1C(=O)C(=Cc2ccc(O)cc2)N=C1C=Cc1cc(Br)c(O)c(Br)c1 [ccA 12]
LTR-III ΔTm [3]: 0.2 °C

CN1C(=O)C(=Cc2ccc(O)cc2)N=C1C=Cc1ccccc1O [ccA 15]
LTR-III ΔTm [3]: 0.5 °C

CN1C(=O)C(=Cc2ccc(O)cc2)N=C1C=Cc1ccc(C(=O)O)cc1 [ccA 16]
LTR-III ΔTm [3]: 0.8 °C

CN1C(=O)C(=Cc2ccc(O)cc2)N=C1C=Cc1ccccc1F [ccA 18]
LTR-III ΔTm [3]: 0.1 °C

CN1C(=O)C(=Cc2ccc(O)cc2)N=C1C=Cc1cccs1 [ccA 19]
LTR-III ΔTm [3]: -0.1 °C

COc1ccccc1C=CC1=NC(=Cc2ccc(O)cc2)C(=O)N1C [ccA 20]
LTR-III ΔTm [3]: 0.4 °C

CN1C(=O)C(=Cc2ccc(O)cc2)N=C1C=Cc1ccc(N(C)C)cc1 [ccA 22]
LTR-III ΔTm [3]: 0.3 °C

CNC(=O)c1cc(/C=C2N=C(/C=C/c3cccs3)N(C)C\2=O)ccc1O [ccD 1]
LTR-III ΔTm [3]: 0.7 °C

CNC(=O)c1cc(C=C2N=C(C=Cc3cc(Br)c(O)c(Br)c3)N(C)C2=O)ccc1O [ccD 2]
LTR-III ΔTm [3]: 0.2 °C

CC(=O)NCCN1C(=O)C(=Cc2ccc(O)cc2)N=C1C=Cc1ccc(O)cc1 [ccE 2]
LTR-III ΔTm [3]: -0.1 °C

COc1ccc(/C=C/C2=NC(=C\c3ccc(O)cc3)/C(=O)N2CCNC(C)=O)cc1 [ccE 4]
LTR-III ΔTm [3]: 2.8 °C | LTR-III (average) [3]: 2,8 °C | CC50 [1]: > 25 µM | СС50 (MT4) [1]: > 25 µM

COc1ccccc1C=CC1=NC(=Cc2ccc(O)cc2)C(=O)N1CCNC(C)=O [ccE 7]
LTR-III ΔTm [3]: 0.3 °C
